How the values were obtained:
Type in all cases: physicochemical
[1] = Photostability testing under illumination of 4500 Lx of ingredient and 1% premix (HPLC); details: 4500 Lx
Description: (§1) Preparation of a sample of 1% premix of an ingredient: 1 g of an ingredient was respectively weighed out and evenly mixed with 99 g of corncob meal in a mixer to give a sample of 1% premix of an ingredient for testing.
Photostability testing: The samples of an ingredient and 1% premix thereof were respectively spread in petri dishes to form thin layers of <5 mm, and kept under an illumination of 4500 Lx. Three replications for a sample were sampled in parallel on day 5 and day 10 for HPLC analysis.
(§2) 25.0 mg of an ingredient was accurately weighed out and dissolved in an appropriate amount of methanol by ultrasonication. The solution was then transferred to a volumetric flask and diluted to 25 mL with methanol to give a stock solution. The samples from the stock solution were diluted with methanol respectively to a concentration of 100 ppm, 500 ppm, and 1000 ppm of work solution, and then the working solutions were filtered by 0.22 μm organic membranes. Between the concentration of a sample and the response value of HPLC peak area thereof, the linearity was adjusted and detected to give a standard curve.
(§3) 2.3: Preparation of Sample Solution 25.0 mg of an ingredient and 2.0000 g of a sample of 1% premix thereof were respectively accurately weighed out, and dissolved in 25 mL of methanol by ultrasonication for 10 minutes. The resulting solutions were filtered by organic membranes and then analyzed by HPLC. 2.4: Testing Conditions for HPLC • Column: Symmetry Cis column (Waters; 250 mm*4.6 mm, 5 μm). • Mobile phase: 0.02% phosphoric acid:methanol=5:95 (v:v). • Wavelength: 235 nm. • Temperature of the Column: 25° C. • Injection volume: 10 μL. • Flow rate: 1 mL/min. 3: Results

[2] = Long-term stability in feeds at room temperature (25° C.±2° C., RH 60%±10%; HPLC)
Description: Feeds: ZUSF's premixed feed (A mixture of crushed Feed A and crushed Feed B at a weight ratio of 2:1, wherein Feed A was a 5.33% multi-premixed feed for piglets from ZUSF's Hao-Ru-Zhen-Jing, and B was a 2.67% multi-premixed feed for piglets from ZUSF's Hao-Ru-Zhen-Jing); creep feed for piglets from CP FEED; INSIGHTER's feed for broiler; 4% premixed feed from GUANGDONG CO-POWER.
Preparation of a sample of 1% premix of Ingredient: 1 g of an ingredient was respectively weighed out and evenly mixed with 99 g of corncob meal in a mixer to give a sample of 1% premix of an ingredient.
Preparation of a sample of 500 ppm feed of an ingredient: The sample of 1% premix of an ingredient was diluted step by step using the ZUSF's remixed feed to 5000 ppm and 500 ppm to give the sample of 500 ppm feed of an ingredient for later testing.
Preparation of a sample of 100 ppm feed of an ingredient: sample of 1% premix of an ingredient was diluted step by step using the creep feed for piglets from CP FEED to 1000 ppm and then 100 ppm to give the sample of 100 ppm feed of an ingredient for later testing.
Preparation of a sample of 100 ppm feed of an ingredient: The sample of 1% premix of an ingredient was diluted step by step using the INSIGHTER's feed for broiler to 1000 ppm and 100 ppm to give the sample of 100 ppm feed of an ingredient for later testing.
Preparation of a sample of 2000 ppm feed of an ingredient: The sample of 1% premix of an ingredient was diluted step by step using the 4% premixed feed from GUANGDONG CO-POWER to 5000 ppm and 2000 ppm to give the sample of 2000 ppm feed of an ingredient for later testing.
Method: Three replications of each feed sample were tested at the condition of 25° C.±2° C. and RH 60%±10%, wherein the replications of each feed sample were sampled in parallel for HPLC analysis on day 5, day 10, day 15, day 30, day 60, and day 90.
25.0 mg of an ingredient was accurately weighed out and dissolved in an appropriate amount of methanol or n-hexane by ultrasonication. The solution was then transferred to a volumetric flask and diluted to 50 mL to give a 500 ppm (by wt.) stock solution. The samples from the stock solution were diluted with methanol or n-hexane respectively to a concentration of 10 ppm, 25 ppm, 50 ppm, 100 ppm, and 250 ppm of work solution, and then the working solutions were filtered by 0.22 μm organic membranes. Between the concentration of a sample and the response value of HPLC peak area thereof, the linearity was adjusted and detected to give a standard curve.
5.0000 g of the samples sampled at different time intervals were respectively accurately weighed out, and dissolved in 25 mL of methanol or n-hexane by ultrasonication for 10 minutes. The resulting solutions were filtered by organic membranes and then analyzed by HPLC.
• Equipment: Waters e2695 with PDA detector. • Mobile phase: 0.02% phosphoric acid:methanol=5:95 (v:v). • Column: Symmetry Cis column (Waters; 250 mm×4.6 mm, 5 μm). • Wavelength: 235 nm. • Temperature of the Column: 25° C. • Injection volume: 10 μL. • Flow rate: 1 mL/min. Normal Phase Chromatography: • Equipment: Shimadzu LC-14C/SPD-15C. • Column: SuperSil NH2 column ([…]; 250 mm×4.6 mm). • Mobile phase: n-hexane:isopropanol=60:40 (v:v). • Wavelength: 235 nm. • Temperature of the Column: 25° C. • Injection volume: 20 μL. • Flow rate: 1 mL/min. 3: Results

[3] = Thermal stability testing at 60° C. of ingredient and 1% premix (HPLC)
Procedure: as §1
Thermal stability testing at 60° C.: The samples of an ingredient and 1% premix thereof were respectively spread in petri dishes to form thin layers of <5 mm, and kept at 60° C. Two replications for a sample were taken in parallel on day 5 and day 10 for HPLC analysis.
as §2, §3

[4] = 1% Premix of an ingredient (corncob meal), Day 5
[5] = 1% Premix of an ingredient (corncob meal), Day 10

SMILES: CCC(=O)OC1=C(CCC(C)C)C(=O)C(CCC(C)C)(CCC(C)C)C(O)=C1C(=O)C(C)C [hexahydro-colupulone mono-propionate]
- Residual amount of active ingredient [1, 4]: 98.87%
- Residual amount of active ingredient [1, 5]: 98.10%
- Residual amount of active ingredient ([1]; Ingredient, Day 5): 98.90%
- Residual amount of active ingredient ([1]; Ingredient, Day 10): 98.70%
- Residual amount of active ingredient ([2]; 100 ppm in INSIGHTER's broiler feed, Day 5): 99.45%
- Residual amount of active ingredient ([2]; 100 ppm in INSIGHTER's broiler feed, Day 15): 99.37%
- Residual amount of active ingredient ([2]; 100 ppm in INSIGHTER's broiler feed, Day 30): 99.19%
- Residual amount of active ingredient ([2]; 100 ppm in INSIGHTER's broiler feed, Day 60): 99.72%
- Residual amount of active ingredient ([2]; 100 ppm in creep feed for piglets from CP FEED, Day 5): 100.54%
- Residual amount of active ingredient ([2]; 100 ppm in creep feed for piglets from CP FEED, Day 15): 100.97%
- Residual amount of active ingredient ([2]; 100 ppm in creep feed for piglets from CP FEED, Day 30): 97.62%
- Residual amount of active ingredient ([2]; 100 ppm in creep feed for piglets from CP FEED, Day 60): 98.08%
- Residual amount of active ingredient ([2]; 100 ppm in creep feed for piglets from CP FEED, Day 90): 96.99%
- Residual amount of active ingredient ([2]; 500 ppm in ZUSF's premixed feed, Day 5): 98.36%
- Residual amount of active ingredient ([2]; 500 ppm in ZUSF's premixed feed, Day 15): 96.77%
- Residual amount of active ingredient ([2]; 500 ppm in ZUSF's premixed feed, Day 30): 94.17%
- Residual amount of active ingredient ([2]; 500 ppm in ZUSF's premixed feed, Day 60): 95.88%
- Residual amount of active ingredient ([2]; 500 ppm in ZUSF's premixed feed, Day 90): 95.73%
- Residual amount of active ingredient ([2]; 2000 ppm in 4% premixed feed from GUANGDONG CO-POWER, Day 5): 97.48%
- Residual amount of active ingredient ([2]; 2000 ppm in 4% premixed feed from GUANGDONG CO-POWER, Day 15): 96.12%
- Residual amount of active ingredient ([2]; 2000 ppm in 4% premixed feed from GUANGDONG CO-POWER, Day 30): 96.28%
- Residual amount of active ingredient ([2]; 2000 ppm in 4% premixed feed from GUANGDONG CO-POWER, Day 60): 95.87%
- Residual amount of active ingredient ([2]; 2000 ppm in 4% premixed feed from GUANGDONG CO-POWER, Day 90): 95.90%
- Residual amount of active ingredient [3, 4]: 98.27%
- Residual amount of active ingredient [3, 5]: 97.91%
- Residual amount of active ingredient ([3]; Ingredient, Day 5): 99.40%
- Residual amount of active ingredient ([3]; Ingredient, Day 10): 99.26%
